“And” between values parts separate entries of the source, which are not always exact repeats. Equal entries are not always repeated. Where two headings read alike, the source gives them in different places. Square brackets hold non-standard residues; d marks the D form. Peptide text beside a SMILES is read from it. pY = N[C@@H](Cc1ccc(OP(=O)(O)O)cc1)C(=O)O
How the values were obtained:
[1] = target: p190RhoGAP-A doubly phosphorylated peptide (Homo sapiens) (UniProt Q9NRY4); test: ITC; details: cited from earlier work
[2] = target: T1, RasGAP^232(mut) (R398E/K400E, C-SH2 mutant) (Homo sapiens, UniProt P20936, C236S/C261S/C372S/C402S/K400E/R398E); test: Isothermal titration calorimetry, C-SH2 mutant RasGAP^232(mut); assay type: binding
T1 construct: (residues 174–444, termed RasGAP^232); hexahistidine (TEV-cleavable) (N, cleaved yes); made in house; host or cells: E. coli Rosetta (DE3)
T1 sequence (P20936 174-444 C236S/C261S/C372S/R398E/K400E/C402S): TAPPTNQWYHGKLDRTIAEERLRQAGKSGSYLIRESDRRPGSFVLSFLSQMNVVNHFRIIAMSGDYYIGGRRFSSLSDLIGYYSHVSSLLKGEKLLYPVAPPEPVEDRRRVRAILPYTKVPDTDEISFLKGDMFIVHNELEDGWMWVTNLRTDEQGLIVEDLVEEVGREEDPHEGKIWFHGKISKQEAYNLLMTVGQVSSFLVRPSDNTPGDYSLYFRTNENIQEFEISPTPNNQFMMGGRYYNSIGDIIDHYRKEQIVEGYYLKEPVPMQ
Method: One possibility for the difference in binding affinity of EphB4 compared to the other dually phosphorylated peptides is that only a single SH2 domain engages EphB4 at any time. This is supported by the observation that the Kd of binding, 2 μM, is similar to other reported individual SH2 phosphotyrosine interactions (for examples see ([60])) and the evidence of only one inflection point in the doubly phosphorylated EphB4–binding isotherm (Figs. 2B and S3). To assess this hypothesis, we generated two RasGAP^232 mutants that disrupt the phosphotyrosine-binding sites of either the N- or C-SH2 domains and conducted further ITC experiments. […] For the ‘FLVR-unique” C-terminal SH2, we introduced a double mutation R398E/K400E, to abrogate phosphotyrosine binding guided by our previous work ([52]), termed RasGAP^232(mut) (Fig. 2D). We additionally generated a double mutant of both SH2 domains, RasGAP^2(mut)32(mut), and purified each of these proteins (Fig. S2, B–D). […] We then assessed phosphopeptide binding of the single mutant SH2 domains. […] This is similar to the Kd of 2 ± 0.7 μM observed for titration of this peptide into WT RasGAP^232.
To attempt to parse the specificity of RasGAP for the more N- or C-terminal EphB juxtamembrane phosphotyrosines pY590 and pY596, we assessed the affinity of RasGAP^232(mut) for shorter synthesized EphB4 peptides corresponding to either of the two phosphotyrosines (Fig. 1C). […] Alternatively, the C-terminal SH2 may contribute to a second weaker interaction in a tandem interaction. […] This low-affinity interaction represents a primarily single N-SH2-dominant interaction.
Purified RasGAP^232 protein and solubilized peptides were dialyzed overnight against buffer containing 20 mM Tris pH 8, 250 mM NaCl in Slide-A-Lyzer 3 ml 10 kDa molecular weight cut off cassettes (Spectra-Por) and Micro Float-A-Lyzer 0.1 to 0.2 ml, 0.1 to […] molecular weight cut off devices (Spectra-Por), respectively. Protein and peptide concentrations were determined by A280 measured on a Nanodrop Lite (Thermo Fisher Scientific) instrument using extinction coefficients of 45,840 M^−1 cm^−1 for RasGAP^232 (and mutants), 917 M^−1 cm^−1 for the doubly phosphorylated EphB4 peptide, and 458.5 M^−1 cm^−1 for the singly phosphorylated EphB4 peptides as determined by ([74]). Dok1 peptide concentration was confirmed using Amino Acid Analysis performed at UC Davis Molecular Structure Facility. Samples were centrifuged for 10 min at 4 °C and degassed for 7 min using a Degassing Station (TA Instruments). ITC experiments were performed on a Nano ITC (TA Instruments) by loading protein into the 190 μl sample cell and titrating 20 times with 2.5 μl peptide in the titration syringe. Concentrations for sample cell and syringe for each trial are included in Table S1. The data were analyzed in NanoAnalyze software (TA Instrument) using blank (constant) and independent models (https://www.tainstruments.com/itcrun-dscrun-nanoanalyze-software/).

[3] = Reconstitution of lyophilized peptides in water; assay type: physicochemical; details: lyophilized peptide reconstituted in water; spiked with 20 mM Tris pH 8 or 10 mM NaOH to increase solubility
From the text: Synthetic peptides were purchased from GenScript and contain N-terminal acetylation and C-terminal amidation for stability. The doubly phosphorylated EphB4 peptide (UniProt ID P54760) used in ITC and SAXS experiments contains residues 586 to 602 (GTKV[pTyr]IDPFT[pTyr]EDPNEA). The singly phosphorylated EphB4 peptides pY590 and pY596 used in ITC experiments contain the residues 586 to 595 (GTKV[pTyr]IDPFT) and residues 592 to 602 (DPFT[pTyr]EDPNE), respectively. The p190RhoGAP peptide (UniProt ID Q9NRY4) used in SAXS experiments contains the residues 1083 to 1111 (SD[pTyr]AEPMDAVVKPRNEEENI[pTyr]SVPH). The Dok1 peptide (UniProt ID Q99704) used in ITC and SAXS experiments contains the residues 291 to 322 (SPPAL[pTyr]AEPLDSLRIAPCPSQDSL[pTyr]SDPLDST). Lyophilized peptides were reconstituted in water, and less soluble peptides (pYpYEphB4 and pY590) were spiked with 20 mM Tris pH 8 or 10 mM NaOH to increase solubility. Concentrations of stock peptides are as follows: pYpY190 stock concentration is 10 mM; pYpYEphB4 stock concentration is 2.5 mM; Dok1 stock concentration is 5.5 mM; pY596 stock concentration is 10 mM; and pY590 stock concentration is 8 mM.

[4] = ITC, average of trials (Table S1)

Sequence of p190RhoGAP-A doubly phosphorylated peptide (Homo sapiens) (Q9NRY4 1083-1111): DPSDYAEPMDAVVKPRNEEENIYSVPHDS
Sequence of p120RasGAP SH2-SH3-SH2 (P20936 174-444): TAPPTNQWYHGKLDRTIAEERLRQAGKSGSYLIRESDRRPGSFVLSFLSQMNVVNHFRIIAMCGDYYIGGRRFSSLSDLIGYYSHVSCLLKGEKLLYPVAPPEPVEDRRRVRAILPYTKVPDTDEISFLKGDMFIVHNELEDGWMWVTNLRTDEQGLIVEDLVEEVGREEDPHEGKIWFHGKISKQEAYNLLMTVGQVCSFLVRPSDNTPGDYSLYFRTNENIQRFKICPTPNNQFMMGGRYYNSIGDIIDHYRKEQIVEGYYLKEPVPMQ

p120RasGAP SH2-SH3-SH2 (from UniProt P20936)
Kd [1]: 10 nM

CC[C@H](C)[C@H](NC(=O)[C@H](Cc1ccc(OP(=O)(O)O)cc1)NC(=O)[C@@H](NC(=O)[C@H](CCCCN)NC(=O)[C@@H](NC(=O)CNC(C)=O)[C@@H](C)O)C(C)C)C(=O)N[C@@H](CC(=O)O)C(=O)N1CCC[C@H]1C(=O)N[C@@H](Cc1ccccc1)C(=O)N[C@H](C(N)=O)[C@@H](C)O [pY590 EphB4] (Ac-GTKV[pY]IDPFT-NH2)
weaker binding than the doubly phosphorylated EphB4 peptide ([2]; ITC Kd, singly versus doubly phosphorylated EphB4 peptide): about 10 fold
n ([2]; ITC stoichiometry, mean ± SD of trials): 0.8 ± 0.1
-T∆S [2, 4]: -2.87 kcal/mol
Ka [2, 4]: 0.07 µM⁻¹
∆G [2, 4]: -6.69 kcal/mol
ΔS ([2]; ITC, mean ± SD of trials): 40 J/mol∗K and 40 ± 18 J/mol∗K
-T∆S ([2]; trial 2, ITC): -2.82 kcal/mol
Ka ([2]; trial 2, ITC): 0.07 µM⁻¹
∆G ([2]; trial 2, ITC): -6.6 kcal/mol
∆H ([2]; trial 2, ITC): -3.78 kcal/mol
∆S ([2]; trial 2, ITC): 40.0 J/mol*K
-T∆S ([2]; trial 3, ITC): -4.16 kcal/mol
∆G ([2]; trial 3, ITC): -6.84 kcal/mol
∆H ([2]; trial 3, ITC): -2.68 kcal/mol
∆S ([2]; trial 3, ITC): 58.3 J/mol*K
Kd ([2]; trial 3, ITC, read-out: Ka): 100 nM
solubility on reconstitution, in words [3]: less soluble

CC[C@H](C)[C@H](NC(=O)[C@H](Cc1ccc(OP(=O)(O)O)cc1)NC(=O)[C@@H](NC(=O)[C@H](CCCCN)NC(=O)[C@@H](NC(=O)CNC(C)=O)[C@@H](C)O)C(C)C)C(=O)N[C@@H](CC(=O)O)C(=O)N1CCC[C@H]1C(=O)N[C@@H](Cc1ccccc1)C(=O)N[C@H](C(=O)N[C@@H](Cc1ccc(OP(=O)(O)O)cc1)C(=O)N[C@@H](CCC(=O)O)C(=O)N[C@@H](CC(=O)O)C(=O)N1CCC[C@H]1C(=O)N[C@@H](CC(N)=O)C(=O)N[C@@H](CCC(=O)O)C(=O)N[C@@H](C)C(N)=O)[C@@H](C)O [pYpY EphB4] (Ac-GTKV[pY]IDPFT[pY]EDPNEA-NH2)
Kd ([2]; ITC, 20 mM Tris pH 8, 250 mM NaCl, independent model, mean ± SD of trials (n = 4 pYpY EphB4, n = 3 pY590, pY596), read-out: Kd): 1000 ± 300 nM
solubility on reconstitution, in words [3]: less soluble
